Data published in PMC12275138, “Identification of glycosylated flavonoids as new physiological ligands of the hazel allergen Cor a 1: Complex structures reveal different binding orientation and specificity of mono- and disaccharide derivatives” (Food Chemistry: X, 2025).

What was measured:
Cor a 1.0101 = biological target: T1, Cor a 1.0101 (Corylus avellana, UniProt Q08407); assay: 1H, […] HSQC screening; assay type: binding; conditions: 60 µM protein, at least 5-fold ligand excess, pH 7.5
T1 construct: recombinant from E. coli, 15N labelled
T1 sequence (Q08407 2-160): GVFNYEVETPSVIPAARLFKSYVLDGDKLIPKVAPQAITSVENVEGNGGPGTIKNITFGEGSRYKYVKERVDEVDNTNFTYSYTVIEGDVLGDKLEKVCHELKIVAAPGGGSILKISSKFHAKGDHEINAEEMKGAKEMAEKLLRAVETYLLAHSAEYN

Cor a 1.0302 = biological target: T2, Cor a 1.0302 (Corylus avellana, UniProt A0AA49EHN2); assay: 1H, […] HSQC screening; assay type: binding; conditions: 60 µM protein, at least 5-fold ligand excess, pH 7.5
T2 construct: recombinant from E. coli, 15N labelled
T2 sequence (A0AA49EHN2 1-159): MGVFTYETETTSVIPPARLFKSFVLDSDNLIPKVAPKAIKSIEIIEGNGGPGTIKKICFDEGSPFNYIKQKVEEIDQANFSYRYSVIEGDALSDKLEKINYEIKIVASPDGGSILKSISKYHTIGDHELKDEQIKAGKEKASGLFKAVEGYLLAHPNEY

C[C@@H]1O[C@@H](Oc2c(-c3ccc(O)cc3)oc3cc(O)cc(O)c3c2=O)[C@H](O)[C@H](O)[C@H]1O [K3OR]
1H,15N HSQC screening (Cor a 1.0101): All the other isoallergens bound to Q3OGlc, Q3OGal, and K3OR.

O=c1c(O[C@@H]2O[C@H](CO)[C@@H](O)[C@H](O)[C@H]2O)c(-c2ccc(O)c(O)c2)oc2cc(O)cc(O)c12 [Q3OGlc]
1H,15N HSQC screening (Cor a 1.0302): All the other isoallergens bound to Q3OGlc, Q3OGal, and K3OR.
1H,15N HSQC screening (Cor a 1.0101): All the other isoallergens bound to Q3OGlc, Q3OGal, and K3OR.
